Laboratory results published in patent US20260209286A1, “SEA CUCUMBER-DERIVED HOLOTOCIN PEPTIDE AND USES THEREOF” (NATIONAL MARINE BIODIVERSITY INSTITUTE OF KOREA, priority 2022, published 2026).
Where two headings read alike, the source gives them in different places. Where a SMILES comes first, the peptide text is derived from it. Bridges are numbered along the chain shown (N, C = ends). Where no end group is shown, it is not given here.

Columns and labels:
Sox2 = assay: RT-PCR of regeneration-related gene Sox2 in HaCaT skin cells; format: cell-based; conditions: 1 μM, 24 hours
Oct4 = assay: RT-PCR of regeneration-related gene Oct4 in HaCaT skin cells; format: cell-based; conditions: 1 μM, 24 hours
kidney cell line 293T [1] = system: kidney cell line 293T
[2] = system: epidermal keratinocytes HaCaT
rat hypothalamic neurons = conditions: cited from earlier work
kidney cell line 293T [3] = assay: CCK-8 cytotoxicity assay in 293T cells; conditions: 10, 1 and 0.1 μM, 24 and 72 hours
[4] = system: epidermal keratinocytes HaCaT; assay: CCK-8 cytotoxicity assay in HaCaT cells; conditions: 10, 1 and 0.1 μM, 24 and 72 hours
kidney cell line 293T [5] = assay: Size of stem cell spheroids formed in 293T cells; format: cell-based; conditions: 10, 1 and 0.1 μM, cultured 10 days
Description: (§1) For the formation of spheroids, the cells prepared in Preparation Example 2 were cultured in Aggrewell 800 plates pretreated with an anti-Adherence rinsing solution, using a DMEM-F12 medium containing a stem cell-permissive medium supplemented with 20 ng/ml EGF, 20 ng/ml basic fibroblast growth factor (bFGf), and B27 Serum-free Supplement (50×; Invitrogen).
(§2) After the culture period, the spheroids were observed under a microscope, and approximately 25 spheroids were measured.
(§3) Specifically, FIGS. 5 to 8 show the results of adding the peptides prepared in Preparation Example 1 to the renal cell line 293T, and FIGS. 9 to 12 show the results of adding the same peptides to the epidermal keratinocytes HaCaT.

[6] = system: epidermal keratinocytes HaCaT; assay: Size of stem cell spheroids formed in HaCaT cells; format: cell-based; conditions: 10, 1 and 0.1 μM, cultured 10 days
Description: as §1, §2, §3

Compound: NC(=O)CC[C@@H]1NC(=O)[C@H](Cc2ccccc2)NC(=O)[C@H](Cc2ccc(O)cc2)NC(=O)[C@@H](N)CSSC[C@@H](C(=O)N2CCC[C@H]2C(=O)N[C@@H](CCCN=C(N)N)C(=O)NCC(N)=O)NC(=O)[C@H](CC(N)=O)NC1=O [Vasopressin(AVP), Vasopressin]
- expression of stemness-related gene Sox2 (Sox2): induces the expression
- expression of stemness-related gene Oct4 (Oct4): induces the expression
- cytotoxicity / cell viability (kidney cell line 293T [1]): no changes in cytotoxicity or cell proliferation
- cytotoxicity / cell viability [2]: no changes in cytotoxicity or cell proliferation
- size of spheroids (rat hypothalamic neurons): increase the size of spheroids

Compound: CC[C@H](C)[C@@H]1NC(=O)[C@H](Cc2ccc(O)cc2)NC(=O)[C@@H](N)CSSC[C@@H](C(=O)N2CCC[C@H]2C(=O)N[C@@H](CC(C)C)C(=O)NCC(N)=O)NC(=O)[C@H](CC(N)=O)NC(=O)[C@H](CCC(N)=O)NC1=O [Oxytocin(OXT), Oxytocin]
- expression of stemness-related gene Sox2 (Sox2; HaCaT, RT-PCR): induces the expression
- expression of stemness-related gene Oct4 (Oct4; HaCaT, RT-PCR): induces the expression
- size of spheroids (rat hypothalamic neurons; rat hypothalamic neurons, Salehi et al. 2021): increase the size of spheroids
- cytotoxicity / cell viability (kidney cell line 293T [3]): no changes in cytotoxicity or cell proliferation
- cytotoxicity / cell viability [4]: no changes in cytotoxicity or cell proliferation

Compound: CC[C@H](C)[C@@H]1NC(=O)[C@H](Cc2ccccc2)NC(=O)[C@@H](N)CSSC[C@@H](C(=O)N2CCC[C@H]2C(=O)N[C@@H](CC(C)C)C(=O)NCC(N)=O)NC(=O)[C@H](CC(N)=O)NC(=O)[C@H]([C@@H](C)O)NC1=O [Holotocin(HLT), Holotocin] (H-CFITNCPLG-NH2; disulfide 1-6)
- cytotoxicity / cell viability (kidney cell line 293T [3]): no changes in cytotoxicity or cell proliferation
- cytotoxicity / cell viability [4]: no changes in cytotoxicity or cell proliferation

Compound: Octopressin (CFWTNCPVG-NH2; ends and bridges not checked; listed as Octopus vulgaris) [Octopressin(OTP)]
- change in the size of the stem cell spheroids (in words) (kidney cell line 293T [5]): little or no change in the size
- change in the size of the stem cell spheroids (in words) [6]: little or no change in the size
- cytotoxicity / cell viability (kidney cell line 293T [3]): no changes in cytotoxicity or cell proliferation
- cytotoxicity / cell viability [4]: no changes in cytotoxicity or cell proliferation
